Test results: ChEMBL document CHEMBL1135049, “Protective effects of polygodial and related compounds on ethanol-induced gastric mucosal lesions in rats: structural requirements and mode of action” (2002)

Tests used:
Rattus norvegicus [1] = test: Inhibitory effect of perorally administered compound (1.0 mg/kg) on gastric lesions induced by ethanol in 6 rats with observed lession index (103.7 mm) was determined; assay type: functional, Stomach
Rattus norvegicus [2] = test: Gastroprotective effect of compound was determined in rats at a peroral dose of 0.0125 mg/kg; assay type: functional; conditions: route oral
Rattus norvegicus [3] = test: Inhibitory effect of perorally administered compound (0.2 mg/kg) on gastric lesions induced by ethanol in 5 rats with observed lession index (12.6 mm) was determined; assay type: functional, Stomach
Rattus norvegicus [4] = test: Inhibitory effect of perorally administered compound (0.025 mg/kg) on gastric lesions induced by ethanol in 5 rats with observed lession index (84.8 mm) was determined; assay type: functional, Stomach
Rattus norvegicus [5] = test: Inhibitory effect of perorally administered compound (0.0125 mg/Kg) on gastric lesions induced by ethanol in 5 rats with observed lession index (129.6 mm) was determined; assay type: functional, Stomach
Rattus norvegicus [6] = test: Inhibitory effect of perorally administered compound (0.1 mg/kg) on gastric lesions induced by ethanol in 5 rats with observed lession index (29.1 mm) was determined; assay type: functional, Stomach
Rattus norvegicus [7] = test: Inhibitory effect of perorally administered compound (0.5 mg/kg) on gastric lesions induced by ethanol in 7 rats with observed lession index (0.0 mm) was determined; assay type: functional, Stomach
Rattus norvegicus [8] = test: Inhibitory effect of perorally administered compound (0.05 mg/kg) on gastric lesions induced by ethanol in 5 rats with observed lession index (48.8 mm) was determined; assay type: functional, Stomach
Rattus norvegicus [9] = test: Inhibitory effect of perorally administered compound (1.0 mg/kg) on gastric lesions induced by ethanol in 6 rats with observed lession index (91 mm) was determined; assay type: functional, Stomach
Rattus norvegicus [10] = test: Inhibitory effect of perorally administered compound (0.1 mg/kg) on gastric lesions induced by ethanol in 7 rats with observed lession index (90.3 mm) was determined; assay type: functional, Stomach
Rattus norvegicus [11] = test: Inhibitory effect of perorally administered compound (0.2 mg/kg) on gastric lesions induced by ethanol in 7 rats with observed lession index (62.7 mm) was determined; assay type: functional, Stomach
Rattus norvegicus [12] = test: Gastroprotective effect of compound was determined in rats at a concentration of 0.05 mg/kg po; assay type: functional
Rattus norvegicus [13] = test: Inhibitory effect of perorally administered compound (0.5 mg/kg) on gastric lesions induced by ethanol in 7 rats with observed lession index (17.1 mm) was determined; assay type: functional, Stomach
Rattus norvegicus [14] = test: Inhibitory effect of perorally administered compound (1.0 mg/kg) on gastric lesions induced by ethanol in 6 rats with observed lession index (8.5 mm) was determined; assay type: functional, Stomach
Rattus norvegicus [15] = test: Inhibitory effect of perorally administered compound (0.05 mg/kg) on gastric lesions induced by ethanol in 7 rats with observed lession index (120 mm) was determined; assay type: functional, Stomach
Rattus norvegicus [16] = test: Inhibitory effect of perorally administered compound (0.2 mg/kg) on gastric lesions induced by ethanol in 7 rats with observed lession index (50.0 mm) was determined; assay type: functional, Stomach
Rattus norvegicus [17] = test: Gastroprotective effect of compound was determined in rats at a concentration of 0.1 mg/kg po; assay type: functional
Rattus norvegicus [18] = test: Inhibitory effect of perorally administered compound (0.5 mg/kg) on gastric lesions induced by ethanol in 7 rats with observed lession index (4.3 mm) was determined; assay type: functional, Stomach
Rattus norvegicus [19] = test: Inhibitory effect of perorally administered compound (1.0 mg/kg) on gastric lesions induced by ethanol in 6 rats with observed lession index (0.9 mm) was determined; assay type: functional, Stomach
Rattus norvegicus [20] = test: Inhibitory effect of perorally administered compound (0.1 mg/kg) on gastric lesions induced by ethanol in 7 rats with observed lession index (95.0 mm) was determined; assay type: functional, Stomach
Rattus norvegicus [21] = test: Inhibitory effect of perorally administered compound (1.0 mg/kg) on gastric lesions induced by ethanol in 9 rats with observed lession index (100.5 mm) was determined; assay type: functional, Stomach
Rattus norvegicus [22] = test: Inhibitory effect of perorally administered compound (0.0005 mg/kg) on gastric lesions induced by ethanol in 10 rats with observed lession index (49.2 mm) was determined; assay type: functional, Stomach
Rattus norvegicus [23] = test: Inhibitory effect of perorally administered compound (0.001 mg/kg) on gastric lesions induced by ethanol in 9 rats with observed lession index (12.1 mm) was determined; assay type: functional, Stomach
Rattus norvegicus [24] = test: Inhibitory effect of perorally administered compound (1.0 mg/kg) on gastric lesions induced by ethanol in 6 rats with observed lession index (76.4 mm) was determined; assay type: functional, Stomach
Rattus norvegicus [25] = test: Inhibitory effect of perorally administered compound (1.0 mg/kg) on gastric lesions induced by ethanol in 5 rats with observed lession index (68.7 mm) was determined; assay type: functional, Stomach
Rattus norvegicus [26] = test: Inhibitory effect of perorally administered compound (0.2 mg/kg) on gastric lesions induced by ethanol in 5 rats with observed lession index (91.3 mm) was determined; assay type: functional, Stomach
Rattus norvegicus [27] = test: Inhibitory effect of perorally administered compound (1.0 mg/kg) on gastric lesions induced by ethanol in 9 rats with observed lession index (88.1 mm) was determined; assay type: functional, Stomach

How did the Inhibition (Rattus norvegicus [1]) turn out when CC1(C)CCC[C@@]2(C)C1CC=C1COC[C@@H]12 (some centres not stated) was run?
The Inhibition was 29.1%.

How did the ED50 (Rattus norvegicus [2]) turn out when CC1(C)CCC[C@]2(C)[C@@H](C=O)C(C=O)=CC[C@@H]12 [POLYGODIAL] was run?
Its ED50 is 0.028 mg/kg.

What about the Inhibition (Rattus norvegicus [3]) of the same molecule?
Its Inhibition is 92.6%.

And the Inhibition (Rattus norvegicus [4])?
The Inhibition was 50%.

And the Inhibition (Rattus norvegicus [5])?
The Inhibition was 23.5%.

And the Inhibition (Rattus norvegicus [6])?
Its Inhibition is 82.8%.

And the Inhibition (Rattus norvegicus [7])?
The Inhibition was 100%.

And the Inhibition (Rattus norvegicus [8])?
Its Inhibition is 71.2%.

For COC(=O)C1=CCC2C(C)(C)CCC[C@]2(C)[C@H]1C(=O)OC (some centres not stated), which Inhibition (Rattus norvegicus [9]) is on record?
The Inhibition was 37.8%.

Which results are given for CO[C@H]1O[C@@H](OC)[C@H]2C1=CCC1C(C)(C)CCC[C@@]12C (some centres not stated)?
Inhibition (Rattus norvegicus [10]): 33.4%; Inhibition (Rattus norvegicus [11]): 53.8%; ED50 (Rattus norvegicus [12]): 0.17 mg/kg; Inhibition (Rattus norvegicus [13]): 87.4%; Inhibition (Rattus norvegicus [14]): 93.7%; Inhibition (Rattus norvegicus [15]): 11.5%

How did the Inhibition (Rattus norvegicus [16]) turn out when CO[C@@H]1O[C@@H](OC)[C@H]2C1=CCC1C(C)(C)CCC[C@@]12C (some centres not stated) was run?
The Inhibition was 62.1%.

And the ED50 (Rattus norvegicus [17])?
Its ED50 is 0.15 mg/kg.

What about the Inhibition (Rattus norvegicus [18]) of the same molecule?
The Inhibition was 96.7%.

And the Inhibition (Rattus norvegicus [19])?
Its Inhibition is 99.3%.

And the Inhibition (Rattus norvegicus [20])?
The Inhibition was 28%.

For CC1(C)CCC[C@@]2(C)C1CC=C(CO)[C@@H]2CO (some centres not stated), which Inhibition (Rattus norvegicus [21]) is on record?
The Inhibition was 27.6%.

How did the Inhibition (Rattus norvegicus [22]) turn out when CCCCC(C)(C)[C@H](O)/C=C/C1[C@H](O)CC(=O)[C@@H]1C/C=C\CCCC(=O)O (some centres not stated) was run?
The Inhibition was 64.5%.

What about the Inhibition (Rattus norvegicus [23]) of the same molecule?
The Inhibition was 91.3%.

How did the Inhibition (Rattus norvegicus [24]) turn out when CC1(C)CCC[C@@]2(C)C1CC=C(C(=O)O)[C@@H]2C(=O)O (some centres not stated) was run?
The Inhibition was 47.7%.

CO[C@@H]1OCC2=CCC3C(C)(C)CCC[C@]3(C)[C@H]21 (some centres not stated) was tested. Which Inhibition (Rattus norvegicus [25]) did it give?
The Inhibition was 54.6%.

And the Inhibition (Rattus norvegicus [26])?
The Inhibition was 39.6%.

For CC(=O)OCC1=CCC2C(C)(C)CCC[C@]2(C)[C@H]1COC(C)=O (some centres not stated), which Inhibition (Rattus norvegicus [27]) is on record?
The Inhibition was 36.5%.
